# Columns and labels:
# [1] = Metabolic (microsomal) stability assay, mouse liver microsomes; type: in vitro ADME; conditions: predicted clearance as percent of liver blood flow; mouse liver microsomes 0.5 mg/mL, 1 μM compound, 37° C.
# Description: (§1) Metabolic (Microsomal) Stability Assay
# (§2) The metabolic degradation of the test compound is assayed at 37° C. with pooled liver microsomes (mouse (MLM), rat (RLM) or human (HLM)). The final incubation volume of 74 μL per time point contains TRIS buffer (pH 7.5; 0.1 M), magnesium chloride (6.5 mM), microsomal protein (0.5 mg/mL for mouse/rat, 1 mg/mL for human specimens) and the test compound at a final concentration of 1 μM. Following a short preincubation period at 37° C., the reactions are initiated by addition of 8 μL beta-nicotinamide adenine dinucleotide phosphate, reduced form (NADPH, 10 mM) and terminated by transferring an aliquot into solvent after different time points. Additionally, the NADPH-independent degradation is monitored in incubations without NADPH, terminated at the last time point by addition of acetonitril. The quenched incubations are pelleted by centrifugation (1811 g, 5 min). An aliquot of the supernatant is assayed by LC-MS/MS for the amount of parent compound.
# (§3) In vitro intrinsic clearance (CLint,in vitro) is calculated from the time course of the disappearance of the test drug during the microsomal incubation. Each plot is fitted to the first-order elimination rate constant as C(t)=C0*exp(−ke*t), where C(t) and C0 are the concentration of unchanged test drug at incubation time t and that at preincubation and ke is the disappearance rate constant of the unchanged drug. Subsequently, CLint,in vitro (μL·min^−1·amount protein) values are converted to CLint,in vitro (mL·min^−1·kg^−1) for the whole body. CLint,in vitro data are scaled up using physiological parameters. For better across species comparison the predicted clearance is expressed as percent of the liver blood flow [% QH] in the individual species. In general high stability (corresponding to low % QH) of the compounds across species is desired.
# CDK8/cyclin C = CDK8/cyclin C (Homo sapiens (Human), UniProt P49336); assay: CDK8 biochemical assay (TR-FRET Kinase Tracer 236 displacement); type: binding; conditions: 5 nM CDK8/cyclin C, 10 nM Kinase Tracer 236, 60 min
# CDK8/cyclin C, sequence (P49336 whole entry): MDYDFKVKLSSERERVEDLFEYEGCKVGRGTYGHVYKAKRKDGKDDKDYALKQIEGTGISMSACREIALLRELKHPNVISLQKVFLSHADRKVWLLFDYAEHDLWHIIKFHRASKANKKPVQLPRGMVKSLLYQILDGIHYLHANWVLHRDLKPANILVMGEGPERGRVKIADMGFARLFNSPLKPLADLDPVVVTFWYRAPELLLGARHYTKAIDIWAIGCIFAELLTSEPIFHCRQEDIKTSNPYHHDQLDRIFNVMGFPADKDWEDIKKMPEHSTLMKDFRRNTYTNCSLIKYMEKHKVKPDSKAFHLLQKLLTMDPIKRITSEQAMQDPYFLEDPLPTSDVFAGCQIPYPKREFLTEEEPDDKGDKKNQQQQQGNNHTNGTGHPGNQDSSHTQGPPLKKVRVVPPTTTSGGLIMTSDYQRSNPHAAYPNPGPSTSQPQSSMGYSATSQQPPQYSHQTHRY
# CDK8/cyclin C, sequence (P24863 whole entry partner): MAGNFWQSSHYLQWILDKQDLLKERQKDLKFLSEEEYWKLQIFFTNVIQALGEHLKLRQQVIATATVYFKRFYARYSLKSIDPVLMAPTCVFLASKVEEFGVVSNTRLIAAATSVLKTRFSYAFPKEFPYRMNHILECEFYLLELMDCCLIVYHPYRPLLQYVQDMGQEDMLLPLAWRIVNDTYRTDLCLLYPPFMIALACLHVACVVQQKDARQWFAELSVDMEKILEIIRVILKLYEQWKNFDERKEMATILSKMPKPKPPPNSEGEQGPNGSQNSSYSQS
# Description: This assay is used to identify compounds which competitively interact with the binding pocket of the CDK8 kinase.
# Assay-ready plates (ARPs; Proxiplate-384 PLUS, white, PerkinElmer) with compound solution in 100% DMSO are generated on an Access Labcyte Workstation with the Labcyte Echo 55x. 150 nL of compound solution are transferred per well in 11 concentrations in duplicates with serial 1:5 dilutions. The final DMSO concentration in the assay is 1%.
# 5 nM (final assay concentration) CDK8/cyclin C, 2 nM (final assay concentration) Biotin anti-His Tag Antibody and 2 nM (final assay concentration) LanthaScreen Eu-Streptavidin are mixed in assay buffer (50 mM HEPES pH 7.3, 10 mM MgCl2, 1 mM EGTA, 0.01% Brij-35, 0.05% BSA, 1 mM DTT) prior to use and kept at room temperature.
# The assay runs on a fully automated robotic system. 10 μL of CDK8/cyclin C, Biotin anti-His Tag Antibody and LanthaScreen Eu-Streptavidin mix are dispensed into columns 1-24. 5 μL of 10 nM (final assay concentration) Kinase Tracer 236 solution in assay buffer are added to columns 1-23, 5 μL of assay buffer into column 24. Plates are kept at room temperature in a darkened incubator. After 60 min incubation time the signal is measured in a PerkinElmer Envision HTS Multilabel Reader using the TR-FRET specs from PerkinElmer.
# Each plate contains 16 wells of a negative control (diluted DMSO instead of test compound; CDK8/cyclin C, Biotin anti-His Tag Antibody and LanthaScreen Eu-Streptavidin mix w Kinase Tracer 236; column 23) and 16 wells of a positive control (diluted DMSO instead of test compound; CDK8/cyclin C, Biotin anti-His Tag Antibody and LanthaScreen Eu-Streptavidin mix w/o Kinase Tracer 236; column 24). A known inhibitor of CDK8/cyclin C binding is used as internal control. IC50 values are calculated and analyzed in the MEGALAB IC50 application using a 4 parametric logistic model.
# Table 4 includes IC50 values of example compounds determined using the above assay.
# [2] = Metabolic (microsomal) stability assay, rat liver microsomes; type: in vitro ADME; conditions: predicted clearance as percent of liver blood flow; rat liver microsomes 0.5 mg/mL, 1 μM compound, 37° C.
# Description: as §1, §2, §3
# [3] = Metabolic (microsomal) stability assay, human liver microsomes; type: in vitro ADME; conditions: predicted clearance as percent of liver blood flow; human liver microsomes 1 mg/mL, 1 μM compound, 37° C.
# Description: as §1, §2, §3
SMILES,MLM [% QH] [1] [% QH],IC50 (CDK8/cyclin C) [nM],RLM [% QH] [2] [% QH],HLM [% QH] [3] [% QH]
CC(=O)N[C@@H]1CCN(c2ccc(Oc3ccnc4c(F)cncc34)cc2)C1 [I-026],<24,2.9,25,<24
CC(=O)N[C@H]1CCN(c2ccc(Oc3ccnc4c(F)cncc34)cc2)C1 [I-023],<24,2.1,<24,<24
Cc1cncc2c(Oc3ccc(N4CCCC4)cc3)ccnc12 [I-004],,3.7,,
COc1cc(Oc2ccc(N3CCN(C(C)=O)CC3)cc2)c2cnccc2n1 [I-034],,14,,
CC(=O)N1CCN(c2ccc(Oc3cc(N(C)C)nc4ccncc34)cc2)CC1 [I-027],,4.5,,
Fc1cncc2c(Oc3ccc(N4CCn5ccnc5C4)cc3)ccnc12 [I-029],36,16.6,57,29
CN1CCC(COc2ccc(Oc3ccnc4c(F)cncc34)cc2)C1=O (centres unmarked) [I-035],<24,3.7,35,<24
Fc1cncc2c(Oc3ccc(N4CCCC4)cc3)ccnc12 [I-002],,3.4,,
CN1CCN(c2ccc(Oc3ccnc4ccncc34)cc2)CC1 [I-028],,11.1,,
c1cc2nccc(Oc3ccc(N4CCCC4)cc3)c2cn1 [I-001],,3.6,,
Cc1nccc2nccc(Oc3ccc(N4CCCC4)cc3)c12 [I-005],,11.2,,
Cc1cncc2c(Oc3ccc(-c4cnn(CC(=O)N(C)C)c4)cc3)ccnc12 [I-041],,5,,
Clc1cncc2c(Oc3ccc(N4CCCC4)cc3)ccnc12 [I-003],,2.4,,
O=C1CCCN1CCOc1ccc(Oc2ccnc3c(F)cncc23)cc1 [I-037],<24,27,47,<24
CC(=O)N(C)CCOc1ccc(Oc2ccnc3c(F)cncc23)cc1 [I-038],,6.6,,
CC(=O)N1CCN(c2ccc(Oc3ccnc4ccncc34)cc2)CC1 [I-031],42,4.7,29,28
"CN(CCO)C(=O)[C@H]1CCN(c2ccc(Oc3ccnc4c(F)cncc34)cc2)C1 [I-017, (S)-1-[4-(8-fluoro-[1,6]naphthyridin-4-yloxy)-phenyl]-pyrrolidine-3-carboxylic acid (2-hydroxy-ethyl)-methyl-amide]",<24,1.8,24,<24
CN(C)C(=O)Cn1cc(-c2ccc(Oc3ccnc4c(Cl)cncc34)cc2)cn1 [I-043],25,2.7,42,<24
c1cc2nccc(Oc3ccc(N4CCOCC4)cc3)c2cn1 [I-030],58,14,60,<24
CN(C)C(=O)CCOc1ccc(Oc2ccnc3c(F)cncc23)cc1 [I-036],<24,4.8,32,<24
CN(C)C(=O)Cn1cc(-c2ccc(Oc3ccnc4ccncc34)cc2)cn1 [I-040],45,2.6,32,27
CN(C)C(=O)[C@@H]1CCN(c2ccc(Oc3ccnc4c(F)cncc34)cc2)C1 [I-019],28,1.7,41,<24
CC(=O)NC1CN(c2ccc(Oc3ccnc4c(F)cncc34)cc2)C1 [I-033],,3.9,,
N[C@H]1CCN(c2ccc(Oc3ccnc4c(F)cncc34)cc2)C1 [I-022],<24,8.3,<24,<24
"CN(C)C(=O)Cn1cc(-c2ccc(Oc3ccnc4c(F)cncc34)cc2)cn1 [I-039, 2-{4-[4-(8-fluoro-[1,6]naphthyridin-4-yloxy)-phenyl]-pyrazol-1-yl}-N,N-dimethyl-acetamide]",26,2.5,<24,<24
CN(C)C(=O)C1CN(c2ccc(Oc3ccnc4c(F)cncc34)cc2)C1 [I-032],<24,2.1,<24,27
Cc1cncc2c(Oc3ccc(N4CC[C@H](C(=O)N(C)C)C4)cc3)ccnc12 [I-014],,1.7,,

# Now those with a lower IC50 (CDK8/cyclin C), led by results:
MLM [% QH] [1] [% QH],IC50 (CDK8/cyclin C) [nM],RLM [% QH] [2] [% QH],HLM [% QH] [3] [% QH],SMILES
,1.5,,,COCCN(C)C(=O)[C@H]1CCN(c2ccc(Oc3ccnc4c(Cl)cncc34)cc2)C1 [I-011]
,1.3,,,CN1CCN(C(=O)[C@H]2CCN(c3ccc(Oc4ccnc5c(Cl)cncc45)cc3)C2)CC1 [I-012]
,1.6,,,CN(C)C(=O)[C@H]1CCN(c2ccc(Oc3ccnc4ccncc34)cc2)C1 [I-006]
,1.2,,,CN1CCN(C(=O)[C@H]2CCN(c3ccc(Oc4ccnc5c(F)cncc45)cc3)C2)CC1 [I-016]
44,1.2,55,30,CN(C)C(=O)[C@@H]1CCN(c2ccc(Oc3ccnc4c(Cl)cncc34)cc2)C1 [I-018]
<24,1.4,<24,<24,CC(=O)N(C)[C@H]1CCN(c2ccc(Oc3ccnc4c(F)cncc34)cc2)C1 [I-024]
,< 1,,,CN1CCN(C(=O)[C@@H]2CCN(c3ccc(Oc4ccnc5c(F)cncc45)cc3)C2)CC1 [I-021]
<24,1.5,43,<24,CN(C)C(=O)[C@H]1CCN(c2ccc(Oc3ccnc4c(F)cncc34)cc2)C1 [I-015]
59,1.2,,44,O=C([C@H]1CCN(c2ccc(Oc3ccnc4c(Cl)cncc34)cc2)C1)N1CCOCC1 [I-013]
,1.6,,,O=C1CCCN1[C@H]1CCN(c2ccc(Oc3ccnc4c(F)cncc34)cc2)C1 [I-025]
57,1.3,,50,CN(CCO)C(=O)[C@H]1CCN(c2ccc(Oc3ccnc4c(Cl)cncc34)cc2)C1 [I-010]
49,1.3,66,<24,CN(C)C(=O)[C@H]1CCN(c2ccc(Oc3ccnc4c(Cl)cncc34)cc2)C1 [I-007]
<24,1.4,<24,<24,CN(CCO)C(=O)[C@@H]1CCN(c2ccc(Oc3ccnc4c(F)cncc34)cc2)C1 [I-020]
